Results: patent US20220265629A1, “TREATMENT OF SYSTOLIC DYSFUNCTION AND HEART FAILURE WITH REDUCED EJECTION FRACTION WITH THE COMPOUND (R)-4-(1-((3-(DIFLUOROMETHYL)-1-METHYL-1H-PYRAZOL-4-YL)SULFONYL)-1-FLUOROETHYL)-N-(ISOXAZOL-3-YL)PIPERIDINE-1-CARBOXAMIDE” (MyoKardia, Inc., priority 2019, published 2022)

Test system: patients with stable HFrEF
Assay: HFrEF study Part 2 (MAD Cohorts A-D): safety (TEAEs, serum troponin, ECG, Holter)
Format: in vivo, human
Procedure: Safety and efficacy assessments were conducted by measuring patients' vital signs and laboratory parameters; performing TTE to measure, e.g., systolic ejection time; performing electrocardiograms (e.g., 12-lead ECG), real-time ECG telemetry (e.g., at least 3-lead), and Holter ECG; and measuring levels of troponin (e.g., troponin I and/or troponin T) and […].
The following safety laboratory parameters were measured: (1) hematology parameters (CBC, including differential count, and platelet count); (2) serum chemistry parameters (e.g., sodium, potassium, chloride, bicarbonate, calcium, magnesium, urea, creatinine, ALP, ALT, AST, total bilirubin, glucose, and CPK); and (3) urinalysis parameters (e.g., pH, protein, glucose, leukocyte esterase, and blood).
Abnormal and/or rising troponin values (as per investigator's judgment and taking into account potential baseline troponin elevation frequently observed in heart failure) led to the patient being clinically evaluated for possible myocardial ischemia. […] The entire clinical context (e.g., signs, symptoms, new ECG changes, new troponin, and CK-MB abnormalities) was evaluated and correlated with any other relevant clinical findings, patient's medical history, and laboratory data to determine the clinical significance of the findings. Troponin results performed on Day 2 of Part 1 (SAD) and Day 10 of Part 2 (MAD) at a local lab were reviewed prior to the patient being discharged the next day.

[1] = Cohort A + C 75 mg BID (n = 15)
[2] = serum, MAD cohorts, Total Compound I (n = 22), ULN = 0.014
[3] = serum, MAD cohorts, Total Compound I (n = 30), ULN = 0.03

Cn1cc(S(=O)(=O)[C@@](C)(F)C2CCN(C(=O)Nc3ccon3)CC2)c(C(F)F)n1 [Compound I, (R)-4-(1-((3-(difluoromethyl)-1-methyl-1H-pyrazol-4-yl)sulfonyl)-1-fluoroethyl)-N-(isoxazol-3-yl)piperidine-1-carboxamide]
17 (56.7) n (%): Any TEAE, number of patients (%) (Total Compound I (n = 30))
1 (11.1) n (%): TEAE: Abdominal discomfort (Cohort B 50 mg BID (n = 9)) | TEAE: Alanine aminotransferase increased (Cohort B 50 mg BID (n = 9)) | TEAE: Application site erosion (Cohort B 50 mg BID (n = 9)) | TEAE: Blood creatine phosphokinase increased (Cohort B 50 mg BID (n = 9)) | TEAE: Fluid overload (Cohort B 50 mg BID (n = 9)) | TEAE: Hyperkalemia (Cohort B 50 mg BID (n = 9)) | TEAE: Infusion site erythema (Cohort B 50 mg BID (n = 9)) | TEAE: Rash (Cohort B 50 mg BID (n = 9)) | TEAE: Ventricular tachycardia (Cohort B 50 mg BID (n = 9))
(0.041) ng/mL: hs-troponin T, max change from baseline [2]
3/6: patients with troponin increase (100 mg)
1 (16.7) n (%): TEAE: Arthropod bite (Cohort D 100 mg BID (n = 6)) | TEAE: Blood creatinine increased (Cohort D 100 mg BID (n = 6)) | TEAE: Gingival pain (Cohort D 100 mg BID (n = 6)) | TEAE: Troponin increased (Cohort D 100 mg BID (n = 6)) | TEAE: Ventricular tachycardia (Cohort D 100 mg BID (n = 6))
(0.052) ng/mL: hs-troponin T, max peak troponin post dose [2]
2 (13.3) n (%): TEAE: Fatigue [1]
6 (40.0) n (%): Any TEAE, number of patients (%) [1]
No increase: QTc (MAD cohorts)
2 (6.7) n (%): TEAE: Alanine aminotransferase increased (Total Compound I (n = 30)) | TEAE: Dermatitis contact (Total Compound I (n = 30)) | TEAE: Fatigue (Total Compound I (n = 30)) | TEAE: Troponin increased (Total Compound I (n = 30)) | TEAE: Ventricular tachycardia (Total Compound I (n = 30))
(0.87) ng/mL: Troponin I, max change from baseline [3]
0.010 ng/mL: Troponin I, median change from baseline [3]
0.025 ng/mL: Troponin I, median peak troponin post dose [3]
2 (22.2) n (%): TEAE: Dermatitis contact (Cohort B 50 mg BID (n = 9))
4 (66.7) n (%): Any TEAE, number of patients (%) (Cohort D 100 mg BID (n = 6))
2/9: patients with troponin increase (50 mg)
7 (23%): patients with transient asymptomatic increase in troponin I or hs-troponin T (MAD cohorts, all doses)
2/15: patients with troponin increase (75 mg)
safe and generally well-tolerated: safety and tolerability (single dose up to 550 mg and 50 to 100 mg BID for 7 days, HFrEF subjects)
(0.88) ng/mL: Troponin I, max peak troponin post dose [3]
0 n (%): Any AE leading to death, number of patients (%) [1] | Any TEAE leading to permanent treatment discontinuation, number of patients (%) [1] | TEAE: Abdominal discomfort [1] | TEAE: Application site erosion [1] | TEAE: Arthralgia [1] | TEAE: Arthropod bite [1] | TEAE: Back pain [1] | TEAE: Blood creatine phosphokinase increased [1] | TEAE: Blood creatinine increased [1] | TEAE: Dermatitis contact [1] | TEAE: Dry eye [1] | TEAE: Fluid overload [1] | TEAE: Gingival pain [1] | TEAE: Hyperkalemia [1] | TEAE: Infusion site erythema [1] | TEAE: Nasopharyngitis [1] | TEAE: Rash [1] | TEAE: Renal failure [1] | TEAE: Renal impairment [1] | TEAE: Testicular pain [1] | TEAE: Ventricular tachycardia [1] | Any AE leading to death, number of patients (%) (Cohort B 50 mg BID (n = 9)) | Any TEAE leading to permanent treatment discontinuation, number of patients (%) (Cohort B 50 mg BID (n = 9)) | Any serious TEAE, number of patients (%) (Cohort B 50 mg BID (n = 9)) | TEAE: Anemia (Cohort B 50 mg BID (n = 9)) | TEAE: Arthralgia (Cohort B 50 mg BID (n = 9)) | TEAE: Arthropod bite (Cohort B 50 mg BID (n = 9)) | TEAE: Back pain (Cohort B 50 mg BID (n = 9)) | TEAE: Blood creatinine increased (Cohort B 50 mg BID (n = 9)) | TEAE: Cough (Cohort B 50 mg BID (n = 9)) | TEAE: Dry eye (Cohort B 50 mg BID (n = 9)) | TEAE: Fatigue (Cohort B 50 mg BID (n = 9)) | TEAE: Gingival pain (Cohort B 50 mg BID (n = 9)) | TEAE: Nasopharyngitis (Cohort B 50 mg BID (n = 9)) | TEAE: Renal failure (Cohort B 50 mg BID (n = 9)) | TEAE: Renal impairment (Cohort B 50 mg BID (n = 9)) | TEAE: Testicular pain (Cohort B 50 mg BID (n = 9)) | TEAE: Troponin increased (Cohort B 50 mg BID (n = 9)) | Any AE leading to death, number of patients (%) (Cohort D 100 mg BID (n = 6)) | Any TEAE leading to permanent treatment discontinuation, number of patients (%) (Cohort D 100 mg BID (n = 6)) | Any serious TEAE, number of patients (%) (Cohort D 100 mg BID (n = 6)) | TEAE: Abdominal discomfort (Cohort D 100 mg BID (n = 6)) | TEAE: Alanine aminotransferase increased (Cohort D 100 mg BID (n = 6)) | TEAE: Anemia (Cohort D 100 mg BID (n = 6)) | TEAE: Application site erosion (Cohort D 100 mg BID (n = 6)) | TEAE: Arthralgia (Cohort D 100 mg BID (n = 6)) | TEAE: Back pain (Cohort D 100 mg BID (n = 6)) | TEAE: Blood creatine phosphokinase increased (Cohort D 100 mg BID (n = 6)) | TEAE: Cough (Cohort D 100 mg BID (n = 6)) | TEAE: Dermatitis contact (Cohort D 100 mg BID (n = 6)) | TEAE: Dry eye (Cohort D 100 mg BID (n = 6)) | TEAE: Fatigue (Cohort D 100 mg BID (n = 6)) | TEAE: Fluid overload (Cohort D 100 mg BID (n = 6)) | TEAE: Hyperkalemia (Cohort D 100 mg BID (n = 6)) | TEAE: Infusion site erythema (Cohort D 100 mg BID (n = 6)) | TEAE: Nasopharyngitis (Cohort D 100 mg BID (n = 6)) | TEAE: Rash (Cohort D 100 mg BID (n = 6)) | TEAE: Renal failure (Cohort D 100 mg BID (n = 6)) | TEAE: Renal impairment (Cohort D 100 mg BID (n = 6)) | TEAE: Testicular pain (Cohort D 100 mg BID (n = 6)) | Any AE leading to death, number of patients (%) (Total Compound I (n = 30)) | Any TEAE leading to permanent treatment discontinuation, number of patients (%) (Total Compound I (n = 30)) | TEAE: Arthralgia (Total Compound I (n = 30)) | TEAE: Back pain (Total Compound I (n = 30)) | TEAE: Dry eye (Total Compound I (n = 30)) | TEAE: Nasopharyngitis (Total Compound I (n = 30)) | TEAE: Renal failure (Total Compound I (n = 30)) | TEAE: Renal impairment (Total Compound I (n = 30)) | TEAE: Testicular pain (Total Compound I (n = 30))
1 (6.7) n (%): Any serious TEAE, number of patients (%) [1] | TEAE: Alanine aminotransferase increased [1] | TEAE: Anemia [1] | TEAE: Cough [1] | TEAE: Troponin increased [1]
7 (77.8) n (%): Any TEAE, number of patients (%) (Cohort B 50 mg BID (n = 9))
0.020 ng/mL: hs-troponin T, median peak troponin post dose [2]
17 (57%): patients with treatment-emergent adverse events (TEAEs) (MAD cohorts, 50-100 mg BID)
1 (3.3) n (%): Any serious TEAE, number of patients (%) (Total Compound I (n = 30)) | TEAE: Abdominal discomfort (Total Compound I (n = 30)) | TEAE: Anemia (Total Compound I (n = 30)) | TEAE: Application site erosion (Total Compound I (n = 30)) | TEAE: Arthropod bite (Total Compound I (n = 30)) | TEAE: Blood creatine phosphokinase increased (Total Compound I (n = 30)) | TEAE: Blood creatinine increased (Total Compound I (n = 30)) | TEAE: Cough (Total Compound I (n = 30)) | TEAE: Fluid overload (Total Compound I (n = 30)) | TEAE: Gingival pain (Total Compound I (n = 30)) | TEAE: Hyperkalemia (Total Compound I (n = 30)) | TEAE: Infusion site erythema (Total Compound I (n = 30)) | TEAE: Rash (Total Compound I (n = 30))
0.005 ng/mL: hs-troponin T, median change from baseline [2]
